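96-well plates; 48 h exposure; 5 concentrations. Endpoints by linear interpolation between flanking doses. Not reached: highest tested concentration assigned. Here, GI50 denotes the concentration required for 50% inhibition of growth. TGI: concentration producing complete growth inhibition.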
What was measured:
Test in all cases: DTP human tumour cell line panel, 48 h
LOX IMVI melanoma = test system: LOX IMVI melanoma
SF-268 CNS = test system: SF-268 CNS
NCI-H460 lung = test system: NCI-H460 lung
TK-10 renal = test system: TK-10 renal
RPMI-8226 leukemia = test system: RPMI-8226 leukemia
SK-OV-3 ovarian = test system: SK-OV-3 ovarian
CAKI-1 renal = test system: CAKI-1 renal
MOLT-4 leukemia = test system: MOLT-4 leukemia
SNB-75 CNS = test system: SNB-75 CNS
786-0 renal = test system: 786-0 renal
NCI-H522 lung = test system: NCI-H522 lung
HS 578T breast = test system: HS 578T breast
OVCAR-3 ovarian = test system: OVCAR-3 ovarian
ACHN renal = test system: ACHN renal
HOP-62 NSCLC = test system: HOP-62 NSCLC
HCT-116 colon = test system: HCT-116 colon
HT29 colon = test system: HT29 colon
SF-295 CNS = test system: SF-295 CNS
SF-539 CNS = test system: SF-539 CNS
SK-MEL-5 melanoma = test system: SK-MEL-5 melanoma
NCI/ADR-RES ovarian = test system: NCI/ADR-RES ovarian
T-47D breast = test system: T-47D breast
KM12 colon = test system: KM12 colon
SN12C renal = test system: SN12C renal
U251 CNS = test system: U251 CNS
MCF7 breast = test system: MCF7 breast
DU-145 prostate = test system: DU-145 prostate
K-562 leukemia = test system: K-562 leukemia
A498 renal = test system: A498 renal
MDA-MB-435 = test system: MDA-MB-435
MDA-MB-231 breast = test system: MDA-MB-231 breast
SK-MEL-2 melanoma = test system: SK-MEL-2 melanoma
OVCAR-8 ovarian = test system: OVCAR-8 ovarian
SNB-19 CNS = test system: SNB-19 CNS
NCI-H23 lung = test system: NCI-H23 lung
A549 NSCLC = test system: A549 NSCLC
UO-31 renal = test system: UO-31 renal
HCC-2998 colon = test system: HCC-2998 colon
UACC-257 melanoma = test system: UACC-257 melanoma
EKVX NSCLC = test system: EKVX NSCLC
BT-549 breast = test system: BT-549 breast
MALME-3M melanoma = test system: MALME-3M melanoma
M14 melanoma = test system: M14 melanoma
SW-620 colon = test system: SW-620 colon
UACC-62 melanoma = test system: UACC-62 melanoma
NCI-H226 lung = test system: NCI-H226 lung
CCRF-CEM leukemia = test system: CCRF-CEM leukemia
IGROV1 ovarian = test system: IGROV1 ovarian
PC-3 prostate = test system: PC-3 prostate
COLO 205 colon = test system: COLO 205 colon
OVCAR-5 ovarian = test system: OVCAR-5 ovarian
SK-MEL-28 melanoma = test system: SK-MEL-28 melanoma
HCT-15 colon = test system: HCT-15 colon
RXF 393 renal = test system: RXF 393 renal
SR leukemia = test system: SR leukemia
OVCAR-4 ovarian = test system: OVCAR-4 ovarian
HOP-92 NSCLC = test system: HOP-92 NSCLC

## NC(=O)c1n[nH]n(-c2ccccc2)c1=O
LOX IMVI melanoma
  TGI: > 100 µM
SF-268 CNS
  TGI: > 100 µM
NCI-H460 lung
  TGI: > 100 µM
TK-10 renal
  TGI: > 100 µM
RPMI-8226 leukemia
  TGI: > 100 µM
SK-OV-3 ovarian
  TGI: > 100 µM
CAKI-1 renal
  TGI: > 100 µM
MOLT-4 leukemia
  TGI: > 100 µM
SNB-75 CNS
  TGI: > 100 µM
786-0 renal
  TGI: > 100 µM
NCI-H522 lung
  TGI: > 100 µM
HS 578T breast
  TGI: > 100 µM
OVCAR-3 ovarian
  TGI: > 100 µM
ACHN renal
  TGI: > 100 µM
HOP-62 NSCLC
  TGI: > 100 µM
HCT-116 colon
  TGI: > 100 µM
HT29 colon
  TGI: > 100 µM
SF-295 CNS
  TGI: > 100 µM
SF-539 CNS
  TGI: > 100 µM
SK-MEL-5 melanoma
  TGI: > 100 µM
NCI/ADR-RES ovarian
  TGI: > 100 µM
T-47D breast
  TGI: > 100 µM
KM12 colon
  TGI: > 100 µM
SN12C renal
  TGI: > 100 µM
U251 CNS
  TGI: > 100 µM
MCF7 breast
  TGI: > 100 µM
DU-145 prostate
  TGI: > 100 µM
K-562 leukemia
  TGI: > 100 µM
A498 renal
  TGI: > 100 µM
MDA-MB-435
  TGI: > 100 µM
MDA-MB-231 breast
  TGI: > 100 µM
SK-MEL-2 melanoma
  TGI: > 100 µM
OVCAR-8 ovarian
  TGI: > 100 µM
SNB-19 CNS
  TGI: > 100 µM
NCI-H23 lung
  TGI: > 100 µM
A549 NSCLC
  TGI: > 100 µM
UO-31 renal
  TGI: > 100 µM
HCC-2998 colon
  TGI: > 100 µM
UACC-257 melanoma
  TGI: > 100 µM
EKVX NSCLC
  TGI: > 100 µM
BT-549 breast
  TGI: > 100 µM
MALME-3M melanoma
  TGI: > 100 µM
M14 melanoma
  TGI: > 100 µM
SW-620 colon
  TGI: > 100 µM
UACC-62 melanoma
  TGI: > 100 µM
NCI-H226 lung
  TGI: > 100 µM
CCRF-CEM leukemia
  TGI: > 100 µM
IGROV1 ovarian
  TGI: > 100 µM
PC-3 prostate
  TGI: > 100 µM
COLO 205 colon
  TGI: > 100 µM
OVCAR-5 ovarian
  TGI: > 100 µM
SK-MEL-28 melanoma
  TGI: > 100 µM
HCT-15 colon
  TGI: > 100 µM
RXF 393 renal
  TGI: > 100 µM

## CCCCCCCCCCCCCC1=NCC[N+]1(CCO)Cc1ccccc1 (stereo not given)
SR leukemia
  GI50: 1.51 µM
  TGI: 4.2 µM
TK-10 renal
  GI50: 1.71 µM
  TGI: 3.28 µM
RPMI-8226 leukemia
  GI50: 1.85 µM
  TGI: 4.8 µM
SK-OV-3 ovarian
  GI50: 1.86 µM
  TGI: 3.8 µM
SNB-75 CNS
  GI50: 1.45 µM
  TGI: 2.81 µM
ACHN renal
  GI50: 1.63 µM
  TGI: 3.1 µM
SF-539 CNS
  GI50: 1.68 µM
  TGI: 3.16 µM
DU-145 prostate
  GI50: 1.77 µM
  TGI: 3.23 µM
MDA-MB-435
  GI50: 1.69 µM
  TGI: 3.18 µM
MDA-MB-231 breast
  GI50: 1.54 µM
  TGI: 3.14 µM
UACC-257 melanoma
  GI50: 2 µM
  TGI: 3.72 µM
PC-3 prostate
  GI50: 1.64 µM
  TGI: 3.23 µM
OVCAR-5 ovarian
  GI50: 1.57 µM
  TGI: 3.07 µM
SK-MEL-28 melanoma
  GI50: 1.7 µM
  TGI: 3.22 µM

## C=C(CNCCc1ccc(O)cc1)[C@@H]1CC[C@]2(CO)CC[C@]3(C)[C@H](CC[C@@H]4[C@@]5(C)CCC(=O)C(C)(C)[C@@H]5CC[C@]43C)[C@@H]12
SR leukemia
  GI50: 1.3 µM
  TGI: 4.17 µM
OVCAR-4 ovarian
  GI50: 1.65 µM
  TGI: 3.12 µM
LOX IMVI melanoma
  GI50: 1.6 µM
  TGI: 2.97 µM
NCI-H460 lung
  GI50: 1.66 µM
  TGI: 3.28 µM
TK-10 renal
  GI50: 1.73 µM
  TGI: 3.19 µM
RPMI-8226 leukemia
  GI50: 1.79 µM
  TGI: 4.45 µM
SK-OV-3 ovarian
  GI50: 1.79 µM
  TGI: 3.51 µM
CAKI-1 renal
  GI50: 1.57 µM
  TGI: 2.96 µM
MOLT-4 leukemia
  GI50: 1.96 µM
  TGI: 4.47 µM
SNB-75 CNS
  GI50: 1.37 µM
  TGI: 2.74 µM
786-0 renal
  GI50: 1.6 µM
  TGI: 2.95 µM
NCI-H522 lung
  GI50: 1.69 µM
  TGI: 3.23 µM
OVCAR-3 ovarian
  GI50: 1.67 µM
  TGI: 3.08 µM
ACHN renal
  GI50: 1.61 µM
  TGI: 2.96 µM
HOP-62 NSCLC
  GI50: 1.58 µM
  TGI: 3.11 µM
HCT-116 colon
  GI50: 1.67 µM
  TGI: 3.03 µM
HT29 colon
  GI50: 1.62 µM
  TGI: 3.08 µM
SF-295 CNS
  GI50: 1.74 µM
  TGI: 3.22 µM
SF-539 CNS
  GI50: 1.75 µM
  TGI: 3.17 µM
SK-MEL-5 melanoma
  GI50: 1.63 µM
  TGI: 2.99 µM
HOP-92 NSCLC
  GI50: 1.01 µM
  TGI: 2.26 µM
T-47D breast
  GI50: 1.72 µM
  TGI: 4 µM
KM12 colon
  GI50: 1.82 µM
  TGI: 3.61 µM
SN12C renal
  GI50: 1.65 µM
  TGI: 3.12 µM
U251 CNS
  GI50: 1.56 µM
  TGI: 2.92 µM
MCF7 breast
  GI50: 1.87 µM
  TGI: 3.84 µM
DU-145 prostate
  GI50: 1.77 µM
  TGI: 3.15 µM
K-562 leukemia
  GI50: 1.86 µM
  TGI: 4.72 µM
A498 renal
  GI50: 1.38 µM
  TGI: 2.77 µM
MDA-MB-435
  GI50: 1.74 µM
  TGI: 3.22 µM
MDA-MB-231 breast
  GI50: 1.76 µM
  TGI: 3.2 µM
SK-MEL-2 melanoma
  GI50: 1.75 µM
  TGI: 3.27 µM
OVCAR-8 ovarian
  GI50: 1.73 µM
  TGI: 3.16 µM
SNB-19 CNS
  GI50: 1.62 µM
  TGI: 3.02 µM
NCI-H23 lung
  GI50: 1.69 µM
  TGI: 3.26 µM
A549 NSCLC
  GI50: 1.63 µM
  TGI: 2.99 µM
UO-31 renal
  GI50: 1.3 µM
  TGI: 2.58 µM
HCC-2998 colon
  GI50: 1.64 µM
  TGI: 3.06 µM
UACC-257 melanoma
  GI50: 1.78 µM
  TGI: 3.26 µM
EKVX NSCLC
  GI50: 1.7 µM
  TGI: 3.24 µM
BT-549 breast
  GI50: 1.71 µM
  TGI: 3.29 µM
MALME-3M melanoma
  GI50: 1.65 µM
  TGI: 3.25 µM
M14 melanoma
  GI50: 1.72 µM
  TGI: 3.24 µM
SW-620 colon
  GI50: 1.77 µM
  TGI: 3.76 µM
UACC-62 melanoma
  GI50: 1.69 µM
  TGI: 3.09 µM
NCI-H226 lung
  GI50: 1.62 µM
  TGI: 3.64 µM
CCRF-CEM leukemia
  GI50: 1.92 µM
  TGI: 5.26 µM
IGROV1 ovarian
  GI50: 1.68 µM
  TGI: 3.3 µM
PC-3 prostate
  GI50: 1.32 µM
  TGI: 2.69 µM
COLO 205 colon
  GI50: 1.73 µM
  TGI: 3.32 µM
OVCAR-5 ovarian
  GI50: 1.59 µM
  TGI: 3 µM
SK-MEL-28 melanoma
  GI50: 1.7 µM
  TGI: 3.14 µM
HCT-15 colon
  GI50: 1.47 µM
  TGI: 2.89 µM
RXF 393 renal
  GI50: 1.28 µM
  TGI: 2.59 µM

Source: PubChem BioAssay (NCI)
